According to article PMC6522510 (Nature Communications, 2019):
Where two headings read alike, the source gives them in different places.

Tests used:
[1] = system: MOLM-13; assay: Secondary dose-response HTS, Cell Titer Glo; format: cell-based, human; settings: for EC50: Homo sapiens, MOLM-13
[2] = system: MV4-11; assay: Secondary dose-response HTS, Cell Titer Glo; format: cell-based, human; settings: for EC50: Homo sapiens
[3] = system: CHRF288-11; assay: Secondary dose-response HTS, Cell Titer Glo; format: cell-based, human; settings: for EC50: Homo sapiens
[4] = system: CMK; assay: Secondary dose-response HTS, Cell Titer Glo; format: cell-based, human; settings: for EC50: Homo sapiens
[5] = system: CMS; assay: Secondary dose-response HTS, Cell Titer Glo; format: cell-based, human; settings: for EC50: Homo sapiens
[6] = system: M07e; assay: Secondary dose-response HTS, Cell Titer Glo; format: cell-based, human; settings: for EC50: Homo sapiens, M-07e
[7] = system: ML2; assay: Secondary dose-response HTS, Cell Titer Glo; format: cell-based, human; settings: for EC50: Homo sapiens
[8] = system: U937; assay: Secondary dose-response HTS, Cell Titer Glo; format: cell-based, human; settings: for EC50: Homo sapiens, U-937
[9] = system: MV4-11; assay: cells; parameters: species or system AML cell lines (8); settings: Homo sapiens, MV4-11, 72 h, read-out: MV4-11
[10] = system: CMK; assay: cells; parameters: species or system AML cell lines (8); settings: Homo sapiens, 72 h, read-out: CMK
[11] = system: MOLM-13; assay: cells; parameters: species or system AML cell lines (8); Secondary HTS, 10-point dose-response in triplicate, Cell Titer Glo viability, four-parameter fit EC50; settings: Homo sapiens; 72 h cell viability; read-out: MOLM-13
[12] = system: CHRF288-11; assay: cells; parameters: species or system AML cell lines (8); settings: 72 h, read-out: CHRF288-11
[13] = system: CMS; assay: cells; parameters: species or system AML cell lines (8); settings: 72 h, read-out: CMS
[14] = system: M07e; assay: cells; parameters: species or system AML cell lines (8); settings: M-07e, 72 h, read-out: M07e
[15] = system: U937; assay: cells; parameters: species or system AML cell lines (8); settings: Homo sapiens, U-937, 72 h, read-out: U937
[16] = system: MLLr primary AML blast samples; assay: Ex vivo drug treatment of primary AML blasts on mesenchymal stromal cells; format: cell-based; settings: Homo sapiens; primary blasts on MSC, 96 h, range over patient samples
[17] = system: AMKL primary AML blast samples; assay: as above; format: cell-based; settings: Homo sapiens; primary blasts on MSC, 96 h
[18] = system: U937; assay: cells; parameters: species or system AML cell lines (8); Secondary HTS, 10-point dose-response in triplicate, Cell Titer Glo viability, four-parameter fit EC50; settings: Homo sapiens, U-937; 72 h cell viability; read-out: U937
[19] = system: ML-2; assay: cells; parameters: species or system AML cell lines (8); settings: Homo sapiens, ML-2, 72 h, read-out: ML-2
[20] = secondary high-throughput screen, read-out: average effective concentration, MOLM-13
[21] = HTS, secondary high-throughput screen, CHRF288-11, read-out: average effective concentration, CHRF288-11
[22] = secondary high-throughput screen, CMK
[23] = HTS, secondary high-throughput screen, CMS, read-out: average effective concentration, CMS
[24] = secondary high-throughput screen, […], read-out: average effective concentration, M07e
[25] = secondary high-throughput screen, ML-2, read-out: average effective concentration, ML-2
[26] = secondary high-throughput screen, U937, read-out: average effective concentration, U937
[27] = secondary high-throughput screen, MV4-11, read-out: average effective concentration, MV4-11
[28] = secondary high-throughput screen, CMK, read-out: average effective concentration, CMK
[29] = secondary high-throughput screen, M07e, read-out: average effective concentration, M07e

| SMILES | EC50 [1, 20] [µM] | EC50 [3, 21] [µM] | EC50 [5, 23] [µM] | EC50 [6, 24] [µM] | EC50 [7, 25] [µM] | EC50 [8, 26] [µM] | EC50 [9] [µM] | EC50 [10] [µM] | EC50 [11] [µM] | EC50 [12] [µM] | EC50 [13] [µM] | EC50 [14] [µM] | EC50 [15] [µM] | EC50 [2, 27] [µM] | EC50 [4, 28] [µM] | EC50 [19] [µM] | also measured |
| --- | --- | --- | --- | --- | --- | --- | --- | --- | --- | --- | --- | --- | --- | --- | --- | --- | --- |
| CCC(=O)CCCCC[C@@H]1NC(=O)[C@H]2CCCCN2C(=O)[C@H]([C@@H](C)CC)NC(=O)[C@H](Cc2cn(OC)c3ccccc23)NC1=O [APICIDIN] | 0.13 | 0.41 | 0.22 | 0.14 | 0.18 | 0.25 | > 10 | > 10 |  |  |  |  |  |  |  |  | average effective concentration, MV4-11 ([2]; secondary high-throughput screen, MV4-11): Inactive; average effective concentration, CMK [4, 22]: Inactive |
| CC[C@H](NC(=O)[C@H](C)NC)C(=O)N1C[C@@H](O)C[C@H]1Cc1c(-c2[nH]c3cc(F)ccc3c2C[C@@H]2C[C@H](O)CN2C(=O)[C@H](CC)NC(=O)[C@H](C)NC)[nH]c2cc(F)ccc12 [BIRINAPANT] |  |  |  |  | 0.001 |  | > 10 | > 10 | > 10 | > 10 | > 10 | > 10 | > 10 |  |  |  |  |
| CC(C)C[C@H](NC(=O)[C@H](Cc1ccccc1)NC(=O)c1cnccn1)B(O)O [Bortezomib, reference compound] | 0.0017 |  |  |  | 0.0012 | 0.021 |  |  |  |  |  |  |  | 0.0023 | 0.0076 |  | EC50 ([1]; secondary HTS, 72 h, average of triplicate, read-out: EC50 MOLM-13): 0.002 µM; EC50 ([2]; MV4-11, secondary HTS, 72 h, average of triplicate, read-out: EC50 MV4-11): 0.002 µM; EC50 ([3]; secondary HTS, 72 h, average of triplicate, read-out: EC50 CHRF288-11): 0.002 µM; EC50 ([4]; CMK, secondary HTS, 72 h, average of triplicate, read-out: EC50 CMK): 0.01 µM; EC50 ([5]; secondary HTS, 72 h, average of triplicate, read-out: EC50 CMS): 0.001 µM; EC50 ([6]; secondary HTS, 72 h, average of triplicate, read-out: EC50 M07e): 0.001 µM; EC50 [6, 29]: 0.0015 µM; EC50 ([7]; ML-2, secondary HTS, 72 h, average of triplicate, read-out: EC50 ML2): 0.001 µM; EC50 ([8]; secondary HTS, 72 h, average of triplicate, read-out: EC50 U937): 0.02 µM; IC50 [16]: 0.0016 to 0.005 µM; IC50 [17]: 0.02 µM |
| CN1C(=O)[C@@]23C[C@]4([C@]56C[C@@]78SS[C@@](CO)(C(=O)N7[C@H]5Nc5ccccc56)N(C)C8=O)c5ccccc5N[C@@H]4N2C(=O)[C@]1(CO)SS3 [CHAETOCIN] | 0.062 | 0.012 | 0.01 | 0.012 | 0.026 |  |  | > 10 |  |  |  |  |  | 0.029 |  |  | average effective concentration, CMK [4, 22]: Inactive; EC50 [18]: 0.0077 µM |
| O=C(O)CCCc1ccc(N(CCCl)CCCl)cc1 [CHLORAMBUCIL] | 10 | 4.9 | 7 | 6.9 |  | 6.1 |  |  |  |  |  |  |  | 8.4 | 5.9 | > 10 | average effective concentration, ML-2 ([7]; secondary high-throughput screen, ML-2): Inactive |
| Nc1nc(Cl)nc2c1ncn2[C@H]1C[C@H](O)[C@@H](CO)O1 [CLADRIBINE] | 0.035 | 0.17 |  |  | 0.19 | 0.087 |  |  |  |  | > 10 |  |  | 0.024 | 0.03 |  | EC50 [6, 29]: 0.014 µM |
| O=P1(N(CCCl)CCCl)NCCCO1 (centres unmarked) [CYCLOPHOSPHAMIDE] |  |  |  |  |  |  | > 10 | > 10 | > 10 | > 10 | > 10 | > 10 | > 10 |  |  | > 10 | average effective concentration, MOLM-13 [1]: Inactive; average effective concentration, MV4-11 [2]: Inactive; average effective concentration, CHRF288-11 [3]: Inactive; average effective concentration, CMK [4]: Inactive; average effective concentration, CMS [5]: Inactive; average effective concentration, M07e [6]: Inactive; average effective concentration, ML-2 [7]: Inactive; average effective concentration, U937 [8]: Inactive |
| NC(=O)c1cccc(N)c1 [Compound 3-AMINOBENZAMIDE] | 3.2 | 3 |  |  | 3.2 |  | > 10 | > 10 |  |  | > 10 | > 10 | > 10 |  |  |  |  |
| CO[C@H]1C[C@@H]2CC[C@@H](C)[C@@](O)(O2)C(=O)C(=O)N2CCCC[C@H]2C(=O)O[C@H]([C@H](C)C[C@@H]2CC[C@@H](OCCO)[C@H](OC)C2)CC(=O)[C@H](C)/C=C(\C)[C@@H](O)[C@@H](OC)C(=O)[C@H](C)C[C@H](C)/C=C/C=C/C=C/1C [EVEROLIMUS] |  |  |  |  |  |  | > 10 | > 10 | > 10 | > 10 | > 10 | > 10 | > 10 |  |  | > 10 |  |
